Assay results published in ChEMBL document CHEMBL4819087, “Identification and optimization of 3-bromo-N'-(4-hydroxybenzylidene)-4-methylbenzohydrazide derivatives as mTOR inhibitors that induce autophagic cell death and apoptosis in triple-negative breast cancer” (Eur J Med Chem, 2021).
Activity calls are given as the source filed them. No cut-off for these calls is given here.

Legend:
[1] = biological target: T1, Serine/threonine-protein kinase mTOR (Homo sapiens, UniProt P42345); experiment: Inhibition of mTOR in human MDA-MB-468 cells assessed as reduction in phosphorylation of mTOR at Ser2448 residue at 0.5 to 2 uM after 24 hrs by Western blot analysis; format: cell-based; settings: dose 0.5-2 µM
[2] = biological target: T1, Serine/threonine-protein kinase mTOR; experiment: Inhibition of mTOR in human MDA-MB-231 cells assessed as reduction in AKT protein level at 0.5 to 2 uM after 24 hrs by Western blot analysis; format: cell-based; settings: dose 0.5-2 µM
[3] = biological target: T1, Serine/threonine-protein kinase mTOR; experiment: Inhibition of mTOR in human MDA-MB-231 cells assessed as reduction in P70S6 protein level at 0.5 to 2 uM after 24 hrs by Western blot analysis; format: cell-based; settings: dose 0.5-2 µM
[4] = biological target: T1, Serine/threonine-protein kinase mTOR; experiment: Inhibition of mTOR in human MDA-MB-468 cells assessed as reduction in AKT protein level at 0.5 to 2 uM after 24 hrs by Western blot analysis; format: cell-based; settings: dose 0.5-2 µM
[5] = biological target: T1, Serine/threonine-protein kinase mTOR; experiment: Inhibition of mTOR in human MDA-MB-468 cells assessed as reduction in P70S6 protein level at 0.5 to 2 uM after 24 hrs by Western blot analysis; format: cell-based; settings: dose 0.5-2 µM
[6] = biological target: T1, Serine/threonine-protein kinase mTOR; experiment: Inhibition of mTOR in human MDA-MB-231 cells assessed as reduction in p-4EBP1(Thr37/46) protein level at 0.5 to 2 uM after 24 hrs by Western blot analysis; format: cell-based; settings: dose 0.5-2 µM
[7] = biological target: T1, Serine/threonine-protein kinase mTOR; experiment: Inhibition of mTOR in human MDA-MB-231 cells assessed as reduction in p-AKT(Ser473) protein level at 0.5 to 2 uM after 24 hrs by Western blot analysis; format: cell-based; settings: dose 0.5-2 µM
[8] = biological target: T1, Serine/threonine-protein kinase mTOR; experiment: Inhibition of mTOR in human MDA-MB-468 cells assessed as reduction in p-4EBP1(Thr37/46) protein level at 0.5 to 2 uM after 24 hrs by Western blot analysis; format: cell-based; settings: dose 0.5-2 µM
[9] = biological target: T1, Serine/threonine-protein kinase mTOR; experiment: Inhibition of mTOR in human MDA-MB-468 cells assessed as reduction in p-AKT(Ser473) protein level at 0.5 to 2 uM after 24 hrs by Western blot analysis; format: cell-based; settings: dose 0.5-2 µM
[10] = biological target: T1, Serine/threonine-protein kinase mTOR; experiment: Inhibition of mTOR in human MDA-MB-468 cells assessed as reduction in p70S6K(Thr389) protein level at 0.5 to 2 uM after 24 hrs by Western blot analysis; format: cell-based; settings: dose 0.5-2 µM
[11] = test system: MDA-MB-468; experiment: Antiproliferative activity against human MDA-MB-468 cells measured after 24 hrs by Hoechst 33258 dye based fluorescence microscopic analysis; format: functional, cell-based; settings: dose 2.5-10 µM
[12] = test system: MDA-MB-231; experiment: Inhibition of colony formation in human MDA-MB-231 cells measured after 14 days by crystal violet staining based assay; format: functional, cell-based; settings: dose 5-10 µM, time 14.0 day
[13] = test system: MDA-MB-468; experiment: Inhibition of colony formation in human MDA-MB-468 cells measured after 14 days by crystal violet staining based assay; format: functional, cell-based; settings: dose 5-10 µM, time 14.0 day
[14] = test system: MDA-MB-231; experiment: Induction of apoptosis in human MDA-MB-231 cells assessed as early apoptotic cells at 2.5 uM after 24 hrs by AnnexinV-FITC/PI staining based flow cytometry analysis (reference value: 2.63%); format: functional
[15] = test system: MDA-MB-231; experiment: Induction of apoptosis in human MDA-MB-231 cells assessed as viable cells at 5 uM after 24 hrs by AnnexinV-FITC/PI staining based flow cytometry analysis (reference value: 96.45%); format: functional; settings: read-out: Activity
[16] = test system: MDA-MB-231; experiment: Induction of apoptosis in human MDA-MB-231 cells assessed as late apoptotic cells at 5 uM after 24 hrs by AnnexinV-FITC/PI staining based flow cytometry analysis (reference value: 0.84%); format: functional
[17] = test system: MDA-MB-231; experiment: Induction of apoptosis in human MDA-MB-231 cells assessed as necrotic cells at 5 uM after 24 hrs by AnnexinV-FITC/PI staining based flow cytometry analysis (reference value: 0.083%); format: functional
[18] = test system: MDA-MB-468; experiment: Induction of apoptosis in human MDA-MB-468 cells assessed as viable cells at 2.5 uM after 24 hrs by AnnexinV-FITC/PI staining based flow cytometry analysis (reference value: 95.1%); format: functional; settings: read-out: Activity
[19] = test system: MDA-MB-468; experiment: Induction of apoptosis in human MDA-MB-468 cells assessed as early apoptic cells at 2.5 uM after 24 hrs by AnnexinV-FITC/PI staining based flow cytometry analysis (reference value: 0.51%); format: functional
[20] = test system: MDA-MB-468; experiment: Induction of apoptosis in human MDA-MB-468 cells assessed as viable cells at 5 uM after 24 hrs by AnnexinV-FITC/PI staining based flow cytometry analysis (reference value: 95.1%); format: functional; settings: read-out: Activity
[21] = test system: MDA-MB-468; experiment: Induction of apoptosis in human MDA-MB-468 cells assessed as late apoptic cells at 5 uM after 24 hrs by AnnexinV-FITC/PI staining based flow cytometry analysis (reference value: 2.84%); format: functional
[22] = test system: MDA-MB-468; experiment: Induction of apoptosis in human MDA-MB-468 cells assessed as early apoptic cells at 10 uM after 24 hrs by AnnexinV-FITC/PI staining based flow cytometry analysis (reference value: 0.51 to 2.55%); format: functional
[23] = test system: MDA-MB-468; experiment: Induction of apoptosis in human MDA-MB-468 cells assessed as decrease in Bcl2 level at 2.5 to 10 uM incubated for 24 hrs by western blot analysis; format: functional, cell-based; settings: dose 2.5-10 µM
[24] = test system: MDA-MB-468; experiment: Induction of autophagy in human MDA-MB-468 cells expressing mRFP-EGFP-LC3B at 5 uM measured after 24 hrs by fluorescence microscopic analysis; format: functional, cell-based
[25] = test system: MDA-MB-231; experiment: Induction of autophagy in human MDA-MB-231 cells assessed as increase in LC3-II protein level at 2.5 to 10 uM incubated for 24 hrs by Western blot analysis; format: functional, cell-based; settings: dose 2.5-10 µM
[26] = test system: MDA-MB-468; experiment: Induction of autophagy in human MDA-MB-468 cells assessed as reduction in p62 protein level at 2.5 to 10 uM incubated for 24 hrs by Western blot analysis; format: functional, cell-based; settings: dose 2.5-10 µM
[27] = test system: MDA-MB-468; experiment: Induction of autophagy in human MDA-MB-468 cells assessed as increase in LC3-II protein level at 2.5 to 10 uM incubated for 24 hrs by Western blot analysis; format: functional, cell-based; settings: dose 2.5-10 µM
[28] = test system: MDA-MB-468; experiment: Induction of autophagy in human MDA-MB-468 cells assessed as increase in Beclin-1 protein level at 2.5 to 10 uM incubated for 24 hrs by Western blot analysis; format: functional, cell-based; settings: dose 2.5-10 µM
[29] = test system: MDA-MB-231; experiment: Antiproliferative activity against human MDA-MB-231 cells assessed as inhibition of cell viability at 5 uM preincubated with autophagy inhibitor, 3-methyladenine for 1 hr followed by compound addition and measured after 24 hrs by MTT assay; format: functional, cell-based
[30] = test system: MDA-MB-231; experiment: (§1) Induction of apoptosis in human MDA-MB-231 cells assessed as late apoptotic cells at 10 uM pretreated with autophagy inhibitor, 3-methyladenine for 1 hr followed by incubation with compound and measured after 24 hrs by Annexin V-FITC/propidium iodide staining based flow cytometry (reference value: 3.11%); format: functional; set-up: scale not given: the % may be the effect or the level left
[31] = test system: MDA-MB-468; experiment: Induction of apoptosis in human MDA-MB-468 cells assessed as viable cells at 10 uM pretreated with autophagy inhibitor, 3-methyladenine for 1 hr followed by incubation with compound and measured after 24 hrs by Annexin V-FITC/propidium iodide staining based flow cytometry (reference value: 93.6%); format: functional; settings: read-out: Activity
[32] = test system: MDA-MB-468; experiment: as §1, with “MDA-MB-468” for “MDA-MB-231”, “pretreated for 1 hr” for “pretreated”, “3-methyladenine” for “3-methyladenine for 1 hr”, “1.94%)” for “3.11%)”; format: functional; set-up: scale not given: the % may be the effect or the level left
[33] = test system: MDA-MB-231; experiment: Induction of apoptosis in human MDA-MB-231 cells assessed as viable cells at 10 uM pretreated with autophagy inhibitor, 3-methyladenine for 1 hr followed by incubation with compound and measured after 24 hrs by Annexin V-FITC/propidium iodide staining based flow cytometry (reference value: 92.7%); format: functional; settings: read-out: Activity

inhibition [1]: Active | inhibition [2]: Active | inhibition [3]: Active | inhibition [4]: Active | inhibition [5]: Active | inhibition [6]: Active | inhibition [7]: Active | inhibition [8]: Active | inhibition [9]: Active | inhibition [10]: Active
Structure (SMILES): C/C(=N\NC(=O)c1cccc(Br)c1)c1ccc(C(=O)Nc2nc3ccccc3[nH]2)cc1
Activity [11]: Dose-Dependent Effect | inhibition [12]: Dose-Dependent Effect | inhibition [13]: Dose-Dependent Effect | Activity [14]: 6.84% | viability at 5 µM [15]: 87.1% | Activity [16]: 2.3% | Activity [17]: 0.099% | viability at 2.5 µM [18]: 89.8% | Activity [19]: 3.35% | viability at 5 µM [20]: 86.2% | Activity [21]: 5.16% | Activity [22]: 12% | Activity [23]: Active | Activity [24]: Active | Activity [25]: Active | Activity [26]: Active | Activity [27]: Active | Activity [28]: Active | Activity [29]: Active | Activity [30]: 6.8% | viability at 10 µM [31]: 81% | Activity [32]: 8.98% | viability at 10 µM [33]: 86.3%
